IC50 data for 25 compounds are collected here from patent US9725449B2, “Tricyclic compounds as anticancer agents” (BRISTOL-MYERS SQUIBB COMPANY, priority 2015, dated 2017).

The target in this test is BRD4 (Homo sapiens, UniProt O60885). The test is described as follows: Time resolved fluorescence resonance energy transfer (TR-FRET) binding assay, bromodomain BRD4. The conditions noted are these: one of the FRET assays described; read-out: FRET BRD4 IC50. On the technique in general: TR-FRET usually uses a lanthanide donor and a delayed reading to cut background.
Usually IC50 stands for the concentration at which inhibition is half-maximal. In the case of `COc1nnn(C)c1-c1cnc2c3ccc(N4CCN(C)CC4)nc3n([C@H](c3ccccc3F)C3CCOCC3)c2c1` [Example 254, 8-[(S)-(2-Fluorophenyl)(oxan-4-yl)methyl]-5-(4-methoxy-1-methyl-1H-1,2,3-triazol-5-yl)-11-(4-methylpiperazin-1-yl)-3,8,10-triazatricyclo[7.4.0.0^2,^7]trideca-1(13),2(7),3,5,9,11-hexaene], the IC50 is below 1 nM.

In the case of `Cc1nnn(C)c1-c1cnc2c3cnc(C(C)(C)O)cc3n([C@H](c3ccccc3)C3CCOCC3)c2c1` [Example 285, 2-[5-(Dimethyl-1H-1,2,3-triazol-5-yl)-8-[(S)-oxan-4-yl(phenyl)methyl]-3,8,12-triazatricyclo[7.4.0.0^2,^7]trideca-1(9),2(7),3,5,10,12-hexaen-11-yl]propan-2-ol], the IC50 is below 1 nM.

Consider `Cc1nnn(C)c1-c1cnc2c3ccc(N4CCC(C(=O)N(C)C)CC4)nc3n([C@H](c3ccccc3F)C3CCOCC3)c2c1` [Example 271, 1-[5-(Dimethyl-1H-1,2,3-triazol-5-yl)-8-[(S)-(2-fluorophenyl)(oxan-4-yl)methyl]-3,8,10-triazatricyclo[7.4.0.0^2,^7]trideca-1(13),2(7),3,5,9,11-hexaen-11-yl]-N,N-dimethylpiperidine-4-carboxamide], for which the IC50 was below 10 nM.

Regarding `Cc1nnn(C)c1-c1cnc2c3ccc(-c4c(C)nnn4C)nc3n([C@H](c3ccccc3F)C3CCOCC3)c2c1` [Example 227, 5,11-Bis(dimethyl-1H-1,2,3-triazol-5-yl)-8-[(S)-(2-fluorophenyl)(oxan-4-yl)methyl]-3,8,10-triazatricyclo[7.4.0.0^2,^7]trideca-1(13),2(7),3,5,9,11-hexaene], the IC50 was below 1 nM.

On to `Cc1nnn(C)c1-c1cnc2c3ccnc(N4CCN(C)CC4)c3n([C@H](c3ccccc3)C3CCOCC3)c2c1` [Example 8, 5-(Dimethyl-1H-1,2,3-triazol-5-yl)-10-(4-methylpiperazin-1-yl)-8-[(S)-oxan-4-yl(phenyl)methyl]-3,8,11-triazatricyclo[7.4.0.0^2,^7]trideca-1(13),2(7),3,5,9,11-hexaene], for which the IC50 was below 10 nM.

In the case of `[2H]C([2H])([2H])c1nnn(C)c1-c1cnc2c3ccc(-c4c(C([2H])([2H])[2H])nnn4C)nc3n([C@H](c3ccccc3F)C3CCOCC3)c2c1` [Example 232, 8-[(S)-(2-Fluorophenyl)(oxan-4-yl)methyl]-5,11-bis[4-(^2H3)methyl-1-methyl-1H-1,2,3-triazol-5-yl]-3,8,10-triazatricyclo[7.4.0.0^2,^7]trideca-1(13),2(7),3,5,9,11-hexaene], the concentration for half-maximal inhibition (IC50) was below 10 nM.

For `Cc1nnn(C)c1-c1ccc2c3ncc(C(C)(C)O)cc3n([C@H](c3ccccc3)C3CCOCC3)c2n1` [Example 380], the IC50 was below 10 nM.

For the compound `Cc1nnn(C)c1-c1cc2c(cn1)c1ncc(C(C)(C)O)cc1n2[C@H](c1ccccc1)C1CCOCC1` [Example 368], the IC50 was below 10 nM.

As to `COc1nccc2c3ncc(-c4c(C)nnn4C)cc3n(C(c3cccc(F)c3)C3CCOCC3)c12` (single isomer, unassigned) [Example 20, 5-(Dimethyl-1H-1,2,3-triazol-5-yl)-8-[(3-fluorophenyl)(oxan-4-yl)methyl]-10-methoxy-3,8,11-triazatricyclo[7.4.0.0^2,^7]trideca-1(13),2(7),3,5,9,11-hexaene], the IC50 was below 10 nM.

For `[2H]C([2H])([2H])c1nnn(C)c1-c1cnc2c3ccc(N4CCN(C)CC4)nc3n([C@H](c3ccccc3F)C3CCOCC3)c2c1` [Example 234, 8-[(S)-(2-Fluorophenyl)(oxan-4-yl)methyl]-5-[4-(^2H3)methyl-1-methyl-1H-1,2,3-triazol-5-yl]-11-(4-methylpiperazin-1-yl)-3,8,10-triazatricyclo[7.4.0.0^2,^7]trideca-1(13),2(7),3,5,9,11-hexaene], the IC50 is below 10 nM.

As to `Cc1nnn(C)c1-c1cnc2c3ccc(S(=O)(=O)N4CCOCC4)nc3n([C@H](c3ccccc3)C3CCOCC3)c2c1` [Example 197, 5-(Dimethyl-1H-1,2,3-triazol-5-yl)-11-(morpholine-4-sulfonyl)-8-[(S)-oxan-4-yl(phenyl)methyl]-3,8,10-triazatricyclo[7.4.0.0^2,^7]trideca-1(9),2(7),3,5,10,12-hexaene], the IC50 is below 10 nM.

Take `Cc1nnn(C)c1-c1cnc2c3ccc(Cl)nc3n([C@H](c3ccccc3)C3CCOCC3)c2c1` [Example 14, 11-Chloro-5-(dimethyl-1H-1,2,3-triazol-5-yl)-8-[(S)-oxan-4-yl(phenyl)methyl]-3,8,10-triazatricyclo[7.4.0.0^2,^7]trideca-1(9),2(7),3,5,10,12-hexaene]: the IC50 was below 10 nM.

As for `[2H]C([2H])([2H])c1nnn(C)c1-c1cnc2c3ccc(NCCS(C)(=O)=O)nc3n([C@H](c3ccccc3)C3CCOCC3)c2c1` [Example 189, N-(2-Methanesulfonylethyl)-5-[4-(^2H3)methyl-1-methyl-1H-1,2,3-triazol-5-yl]-8-[(S)-oxan-4-yl(phenyl)methyl]-3,8,10-triazatricyclo[7.4.0.0^2,^7]trideca-1(9),2(7),3,5,10,12-hexaen-11-amine], the IC50 was below 1 nM.

For `Cc1nnn(C)c1-c1cnc2c3c(F)nccc3n([C@H](c3ccccc3)C3CCOCC3)c2c1` [Example 3, 5-(Dimethyl-1H-1,2,3-triazol-5-yl)-13-fluoro-8-[(S)-oxan-4-yl(phenyl)methyl]-3,8,12-triazatricyclo[7.4.0.0^2,^7]trideca-1(13),2(7),3,5,9,11-hexaene], the IC50 was below 10 nM.

For `[2H]C([2H])([2H])c1nnn(C)c1-c1cnc2c3cnc(Cl)cc3n([C@H](c3ccccc3F)C3CCOCC3)c2c1` [Example 315], the IC50 is below 10 nM.

As to `[2H]C([2H])([2H])c1nnn(C)c1-c1cnc2c3ccc(NC)nc3n([C@H](c3ccccc3F)C3CCOCC3)c2c1` [Example 239, 8-[(S)-(2-Fluorophenyl)(oxan-4-yl)methyl]-N-methyl-5-[4-(^2H3)methyl-1-methyl-1H-1,2,3-triazol-5-yl]-3,8,10-triazatricyclo[7.4.0.0^2,^7]trideca-1(13),2(7),3,5,9,11-hexaen-11-amine], the IC50 is below 10 nM.

`Cc1nnn(C)c1-c1cnc2c3ccc(N(C)C)nc3n([C@H](c3ccccc3)C3CCOCC3)c2c1` [Example 181, 5-(Dimethyl-1H-1,2,3-triazol-5-yl)-N,N-dimethyl-8-[(S)-oxan-4-yl(phenyl)methyl]-3,8,10-triazatricyclo[7.4.0.0^2,^7]trideca-1(9),2(7),3,5,10,12-hexaen-11-amine]: the IC50 is below 1 nM.

Take `COc1nc(Cl)cc2c1c1ncc(-c3c(C)nnn3C)cc1n2C(c1ncccc1O)C1CCOCC1` (stereo not shown) [Example 306, 2-({11-Chloro-13-methoxy-5-[4-(^2H3)methyl-1-methyl-1H-1,2,3-triazol-5-yl]-3,8,12-triazatricyclo[7.4.0.0^2,^7]trideca-1(9),2(7),3,5,10,12-hexaen-8-yl}(oxan-4-yl)methyl)pyridin-3-ol]: the IC50 is below 10 nM.

Consider `[2H]C([2H])([2H])c1nnn(C)c1-c1cnc2c3c(OC)nc(N4CCC(F)(F)CC4)cc3n([C@H](c3ccccc3)C3CCOCC3)c2c1` [Example 343, 11-(4,4-Difluoropiperidin-1-yl)-13-methoxy-5-[4-(^2H3)methyl-1-methyl-1H-1,2,3-triazol-5-yl]-8-[(S)-oxan-4-yl(phenyl)methyl]-3,8,12-triazatricyclo[7.4.0.0^2,^7]trideca-1(13),2(7),3,5,9,11-hexaene], for which the IC50 is below 1 nM.

On to `COc1nccc2c3ncc(-c4c(C)nnn4C)cc3n(C(c3c(F)cc(F)cc3F)C3CCOCC3)c12` (racemic) [Example 24, 5-(Dimethyl-1H-1,2,3-triazol-5-yl)-10-methoxy-8-[oxan-4-yl(2,4,6-trifluorophenyl)methyl]-3,8,11-triazatricyclo[7.4.0.0^2,^7]trideca-1(13),2(7),3,5,9,11-hexaene], for which the IC50 was below 10 nM.

For the compound `Cc1noc(C)c1-c1cnc2c3c(NS(=O)(=O)C(C)C)ncc(S(C)(=O)=O)c3n([C@H](c3ccccc3)C3CCOCC3)c2c1` [Example 100, N-[5-(Dimethyl-1,2-oxazol-4-yl)-10-methanesulfonyl-8-[(S)-oxan-4-yl(phenyl)methyl]-3,8,12-triazatricyclo[7.4.0.0^2,^7]trideca-1(13),2(7),3,5,9,11-hexaen-13-yl]propane-2-sulfonamide], the IC50 is below 10 nM.

In the case of `Cc1nnn(C)c1-c1cnc2c3cc(Cl)ncc3n([C@H](c3ccccc3F)C3CCOCC3)c2c1` [Example 4, 12-Chloro-5-(dimethyl-1H-1,2,3-triazol-5-yl)-8-[(S)-(2-fluorophenyl)(oxan-4-yl)methyl]-3,8,11-triazatricyclo[7.4.0.0^2,^7]trideca-1(13),2(7),3,5,9,11-hexaene], the IC50 was below 10 nM.

Consider `[2H]C([2H])([2H])c1nnn(C)c1-c1cnc2c3c(OC(C)C)nccc3n([C@H](c3ccccc3)C3CCOCC3)c2c1` [Example 131, 5-[4-(^2H3)Methyl-1-methyl-1H-1,2,3-triazol-5-yl]-8-[(S)-oxan-4-yl(phenyl)methyl]-13-(propan-2-yloxy)-3,8,12-triazatricyclo[7.4.0.0^2,^7]trideca-1(13),2(7),3,5,9,11-hexaene], for which the IC50 is below 10 nM.

Consider `[2H]C([2H])([2H])c1nnn(C)c1-c1cnc2c3ccc(-c4c(C([2H])([2H])[2H])nnn4C)nc3n(C(c3ncccc3F)C3CCOCC3)c2c1` (stereo not shown) [Example 248, 8-[(3-Fluoropyridin-2-yl)(oxan-4-yl)methyl]-5,11-bis[4-(^2H3)methyl-1-methyl-1H-1,2,3-triazol-5-yl]-3,8,10-triazatricyclo[7.4.0.0^2,^7]trideca-1(13),2(7),3,5,9,11-hexaene], for which the IC50 is below 10 nM.

As to `[2H]C([2H])([2H])c1nnn(C)c1-c1cnc2c3ccc(C(C)(O)C4CC4)nc3n([C@H](c3ccccc3F)C3CCOCC3)c2c1` (stereo partly drawn) [Example 242, 1-Cyclopropyl-1-{8-[(S)-(2-fluorophenyl)(oxan-4-yl)methyl]-5-[4-(^2H3)methyl-1-methyl-1H-1,2,3-triazol-5-yl]-3,8,10-triazatricyclo[7.4.0.0^2,^7]trideca-1(13),2(7),3,5,9,11-hexaen-11-yl}ethan-1-ol], the IC50 was below 10 nM.
